Test results as given in patent US9371336B2, “Compounds for treating spinal muscular atrophy” (PTC Therapeutics Inc., priority 2012, dated 2016).

Assays:
[1] = test system: gems (Smn-dependent nuclear speckles) in SMA patient fibroblast cells; assay: Gems count (Smn-dependent nuclear speckle count) assay; type: cell-based, human; settings: SMA Type 1 patient cells, 48 hour, fluorescence microscopy (FIG. 7)
Description: The level of Smn protein directly correlates with the amount of nuclear foci, also known as gems, produced upon staining the cell with a fluorescently labeled anti-Smn antibody (Liu and Dreyfuss, EMBO J., 1996, 15:3555). Gems are multi-protein complexes whose formation is nucleated by the Smn protein and the gems count assay is used to evaluate the level of Smn protein in the cell. As described herein, the gems count assay is used to quantify the level of Smn protein in SMA patient fibroblast cells treated with a test compound.
Cells are thawed and incubated in DMEM-10% FBS for 72 hours, then trypsinized, counted and resuspended to 100,000 cells/mL in DMEM-10% FBS. The cell suspension (2 mL) is plated in a 6-well cell culture plate with a sterile cover slip and incubated for 3 to 5 hours. Test compounds are serially diluted 3.16-fold in 100% DMSO to generate a 7-point dilution curve. […]
Cell culture medium is aspirated from the wells containing cover slips and gently washed three times with cold PBS. […] The number of gems is counted per ≧150 nuclei and % activation is calculated using DMSO and 10 nM bortezomib as controls. For each test compound, the cells are examined at all wavelengths to identify test compounds with inherent fluorescence.

[2] = test system: human SMN1 minigene full length and Δ7 mRNA (SMN1-A); assay: Human SMN1 minigene mRNA end-point semi-quantitative RT-PCR splicing assay in cultured cells; type: cell-based; settings: HEK293H cells transfected with SMN1-A minigene, increasing concentrations, 7 hours, agarose gel (FIG. 10)
Description: The RT-PCR assay is used to visualize and quantify the levels of the human SMN1 minigene full length and Δ7 mRNA in primary cells and cell lines expressing the human SMN1 minigene construct treated with a test compound.
Using the procedure for the preparation of the SMN2 minigene construct described in Biological Example 1, the SMN1 version of the minigene is generated by replacing the sixth nucleotide of exon 7 (a thymine residue) of the SMN2-A minigene construct to cytosine using site-directed mutagenesis. Thus, similar to the SMN2-A minigene construct, the SMN1 minigene construct has a single adenine residue inserted after nucleic residue 48 of exon 7. The SMN1 minigene construct is referred to as SMN1-A.
HEK293H cells (10,000 cells/well/199 μL) were transfected, using FuGENE-6 reagent, in a 96-well plate with 15 ng of the SMN1-A minigene reporter plasmid per well. Cells were incubated for 24 hours following transfection. Test compounds were serially diluted 3.16-fold in 100% DMSO to generate a 7-point concentration curve. A solution of test compound (1 μL, 200× in DMSO) was added to each test well. 1 μL DMSO was added to each control well. The plate was incubated for 7 hours in a cell culture incubator (37° C., 5% CO2, 100% relative humidity). The cells were then lysed in Cells-To-Ct lysis buffer and the lysates were stored at −80° C.
Two SMN spliced mRNA are generated from the SMN1 minigene. The term “SMN1 minigene FL” refers to the first spliced product containing exon 7, corresponding to full length SMN1 mRNA. The term “SMN1 minigene A7” refers to the second product lacking exon 7.
SMN1 minigene FL and SMN1 minigene Δ7 mRNA are amplified using the primers in Table 11. Primer SMN Forward C (SEQ ID NO. 11) hybridizes to a nucleotide sequence in exon 6 (nucleotide 43 to nucleotide 63), primer SMN Reverse A (SEQ ID NO. 2) hybridizes to a nucleotide sequence in the coding sequence of Firefly luciferase. The combination of these two oligonucleotides detects only SMN1 or SMN2 minigenes (RT-PCR) and will not detect endogenous SMN1 or SMN2 genes. Since the HEK293H cells used in Example 16 were transfected with only the human SMN1 minigene, RT-PCR can visualize and quantify only SMN1 minigene FL and SMN1 minigene Δ7 mRNA.
To synthesize cDNA, 5 μL of lysate, 4 μL of 5× iScript reaction mix, 1 μL of reverse transcriptase, and 10 μL of water are combined and incubated 5 min at 25° C. followed by 30 min at 42° C., followed by 5 min at 85° C. The cDNA solution is stored at −20° C.
To perform endpoint PCR, 5 μL of cDNA, 0.2 μL of 100 μM forward primer, 0.2 μL of 100 μM reverse primer, and 22.5 μL of polymerase super mix are combined in a 96 well semiskirted PCR plate. PCR is carried out at the following temperatures for the indicated time: Step 1: 94° C. (2 min), Step 2: 94° C. […]

| SMILES | gems (nuclear speckle count) relative to DMSO [1] | SMN1 minigene FL mRNA (gel band) [2] | SMN1 minigene Δ7 mRNA (gel band) [2] |
| --- | --- | --- | --- |
| CN1CCN(c2ccc3cc(-c4nc5c(Cl)cccc5s4)c(=O)oc3n2)CC1 [Cpd 5, 3-(4-chloro-1,3-benzothiazol-2-yl)-7-(4-methylpiperazin-1-yl)-2H-pyrano[2,3-b]pyridin-2-one] | progressively more gems | progressively more SMN1 minigene FL mRNA | less SMN1 minigene Δ7 mRNA |
| Cc1ccc2nc(-c3cc4ccc(N5CCN(C)CC5)nc4oc3=O)cn2c1 [Cpd 27, 3-(6-methylimidazo[1,2-a]pyridin-2-yl)-7-(4-methylpiperazin-1-yl)-2H-pyrano[2,3-b]pyridin-2-one] |  | progressively more SMN1 minigene FL mRNA | less SMN1 minigene Δ7 mRNA |
